This note sets out measurements from patent US8053599B2, “Drug containing (2R)-2-propyloctanoic acid as the active ingredient” (Ono Pharmaceutical Co., Ltd., priority 2003, dated 2011).

Series [1] can be described thus: solubility and behaviour in water. Type of series: physicochemical. An excerpt:
The present inventors have attempted to prepare a medicament comprising (2R)-2-propyloctanoic acid or a salt thereof in a high concentration, which is useful for the treatment of neurodegenerative diseases including cerebral infarction, and which can be formulated to an injection which can be conveniently administered to a patient, if necessary, by means of the dissolution or dilution operation. […] The inventors have conducted studies to solve these problems and have found as a result that (2R)-2-propyloctanoic acid can be dissolved in water in a high concentration by mixing it with a strong alkali such as sodium hydroxide. […] Moreover, the solution in a high concentration was difficult to be stored for a long period of time because of the appearance of insoluble allotrio within the solution under long-term storage in conventional glass containers. Thus, there are problems in using a drug which is sensitive to a change in the drug concentration or in the pH of the solution, leading to a change such as clouding. That is, there is in fact the risk of clouding of the drug, upon preparing an injection which can be administered to a patient, by direct manipulation of a person involved in medical services, for combined use with other agents, or during the action of intravascular administration to a patient. […]

The subject of the next series is dog. Description: single intravenous administration toxicity using a dog. Type of series: in vivo. To be noted: dose of 100 mg/kg.
Series [2] can be described thus: confirmation test of micelle formation (fat staining with Sudan III, absorbance of supernatant). Type of series: physicochemical. From the text:
The fat staining method includes, for example, a method of mixing a solution of a fat-soluble dye (for example, Sudan III, piacyanol chloride, Rhodamine 6G, etc.) with the solution under test, followed by centrifugation after a certain period of time, and measuring the absorbance of the supernatant which is inherent to the fat-soluble dye used. If the absorbance of the supernatant can be measured according to this test method, it implies that the fat-soluble dye is present within micelles, that is, micelles have been formed, and thus it is possible to determine that a micelle water dispersion liquid has been formed. It is also possible to define the critical concentration of micelle formation, that is, a critical micelle concentration (CMC), by means of such a test.
The critical micelle concentration cannot be exactly determined since it depends on the substance forming micelles, the type of co-existing ions and the concentration thereof, the ionic strength, and even on temperature. […]
Into a spitz made of glass, the Sudan III solution prepared in the above (2) (400 μL) was added, and ethanol was evaporated Each of the (2R)-2-propyloctanoic acid solutions of various concentrations prepared in the above (1) was added thereto, and the mixture was subjected to sonication and stirring. […] The absorbance of the supernatant was measured at a wavelength of 502 nm.

For the compound `CCCCCC[C@@H](CCC)C(=O)[O-].[Na+]` [(2R)-2-propyloctanoic acid-sodium salt], the “pH and clouding of solution in water” value in series [1] (dissolved in water) was “has a high pH and is susceptible to clouding under slight fluctuations of the pH”.
For `CCCCCC[C@@H](CCC)C(=O)O` [(2R)-2-propyloctanoic acid], the “death after single intravenous administration” value in the series on dog is given as “did not result in death”. In series [2] (aqueous medicament comprising about 1 to about 5 equivalents of basic sodium ion based on 1 equivalent of (2R)-2-propyloctanoic acid, room temperature), the critical micelle concentration fell in the range of 20 to 25 mg/mL. In series [2] (aqueous solution with trisodium phosphate dodecahydrate, Sudan III, left at room temperature for 1 day, absorbance at 502 nm), the “concentration at which micelle formation occurred” value is on record as “about 20 mg/mL”. For the same compound, the solubility in water entry in series [1] (water) was “insoluble and immiscible in water”.
